Laboratory results: patent US9968606B2, “Deuterated compounds for treating cancer and related diseases and conditions, and compositions and methods thereof” (NeuForm Pharmaceuticals, Inc., priority 2015, dated 2018)
Like-named read-outs stand apart in the source and are kept apart here.

How the values were obtained:
wild-type EGFR = wild-type EGFR (Homo sapiens, UniProt P00533); conditions: reportedly; cited from earlier work
[1] = Reactivity as covalent inhibitor: half-life in buffered aqueous cysteine solution; conditions: for half-life: PBS buffer with cysteine, 37° C.; for Improvement (%) of t½ in cysteine solution: deuterated compound vs. reference osimertinib
Procedure: The combo solutions were prepared by mixing individual evaluated compounds with reference osimertinib. Then, they were added to PBS buffer solution with cysteine at 37° C. The stability time course samples (in triplicate) were taken and added to prechilled quenching solution and then store at −70° C. freezer. The samples were analyzed on a Waters Acquity UPLC system coupled with a Bruker Q-tof mass spectrometer. The peak areas of respective extracted ion chromatograms were used for relative comparison.

[2] = Drug metabolism and pharmacokinetic evaluation in human liver microsome suspensions (percentage of compound remaining vs. incubation time); type: in vitro ADME; conditions: human liver microsomes, NADPH, 37° C., after 4 hour, combo incubation with Osimertinib
Procedure: In vitro drug metabolism and pharmacokinetic evaluation of D16-Osimertinib, and D19-Osimertinib against Osimertinib was conducted in Human Liver Microsome suspensions. The stability time course samples were prepared in house and extracted immediately by protein precipitation method using MeCN containing 400 ng/mL carbutomide as the internal standard (IS). The samples were analyzed on a Waters Acquity UPLC system coupled with a Bruker Q-tof mass spectrometer. The peak areas of respective extracted ion chromatograms were used for relative comparison. The sample preparation was performed according to the following procedure: […] The samples were put in 37° C. incubator for 10 minutes. […] The samples were vortexed and centrifuged at 13,000 g for approximately 5 minutes, then supernatants were taken and stored in −20° C. freezer. The sampling at a time point was triplicate. After the last samples were taken and they were placed in −20° C. at least 1 hour. All samples were put into a refrigerator at approximate 4° C. for 30 minutes. The samples were vortexed. Then approximately 100 μL of the supernatants were transferred to corresponding wells of a 96-well plate. The samples were diluted with 100 μL of 0.1% FA in water. The samples were vortexed and briefly centrifuged for LC-HRMS analysis. Sample chamber for LC-HRMS was kept at approximate 4° C. […]

[3] = system: A431 human squamous carcinoma cells (WT EGFR); assay: Cell-based experiment on inhibition of WT-EGFR: cell proliferation of A431 cells
Source text: (§1) A431 cells are a model human cell line which express abnormally high levels of the wide-type epidermal growth factor receptor (WT EGFR). WT EGFR inhibitors can affect cell prolification of the cells. Similarly the prolification of HepG2 hepatoma cells can be inhibited by WT EGFR inhibitors.

HepG2 hepatoma cells = assay: Cell-based experiment on inhibition of WT-EGFR: cell proliferation of HepG2 hepatoma cells
Source text: as §1

[4] = Monkey pharmacokinetic study on deuteration of indole N-methyl group; type: in vivo; conditions: cynomolgus monkey, blood; male cynomolgus monkeys, single oral administration, 20 mg/Kg; read-out: AUC(0-t) of the parent
Procedure: A total of two (2) cynomolgus monkeys (male) were placed on study. Washout period lasted 7 days between two phases. Each test article was administered to an individual animal via a single oral administration for all groups. The dose levels were 20 mg/Kg. All animals were given detailed clinical examinations prior to administration, and no abnormality was observed. Cage side observation was conducted on all animals twice daily throughout the duration of administration. All animals were weighed before dosing on the day of administration. Blood samples were collected predose and postdose 0.25, 0.5, 1, 2, 3, 4, 6, 8, 12, 24, 36 and 48 h from the femoral vein at appropriate time points for analysis. These samples were analyzed by LC-MS/MS.

[5] = combo solution with osimertinib, read-out: Half-life in cysteine solution, Deuterated (t½ h) (converted)

Chain of wild-type EGFR (P00533 25-1210): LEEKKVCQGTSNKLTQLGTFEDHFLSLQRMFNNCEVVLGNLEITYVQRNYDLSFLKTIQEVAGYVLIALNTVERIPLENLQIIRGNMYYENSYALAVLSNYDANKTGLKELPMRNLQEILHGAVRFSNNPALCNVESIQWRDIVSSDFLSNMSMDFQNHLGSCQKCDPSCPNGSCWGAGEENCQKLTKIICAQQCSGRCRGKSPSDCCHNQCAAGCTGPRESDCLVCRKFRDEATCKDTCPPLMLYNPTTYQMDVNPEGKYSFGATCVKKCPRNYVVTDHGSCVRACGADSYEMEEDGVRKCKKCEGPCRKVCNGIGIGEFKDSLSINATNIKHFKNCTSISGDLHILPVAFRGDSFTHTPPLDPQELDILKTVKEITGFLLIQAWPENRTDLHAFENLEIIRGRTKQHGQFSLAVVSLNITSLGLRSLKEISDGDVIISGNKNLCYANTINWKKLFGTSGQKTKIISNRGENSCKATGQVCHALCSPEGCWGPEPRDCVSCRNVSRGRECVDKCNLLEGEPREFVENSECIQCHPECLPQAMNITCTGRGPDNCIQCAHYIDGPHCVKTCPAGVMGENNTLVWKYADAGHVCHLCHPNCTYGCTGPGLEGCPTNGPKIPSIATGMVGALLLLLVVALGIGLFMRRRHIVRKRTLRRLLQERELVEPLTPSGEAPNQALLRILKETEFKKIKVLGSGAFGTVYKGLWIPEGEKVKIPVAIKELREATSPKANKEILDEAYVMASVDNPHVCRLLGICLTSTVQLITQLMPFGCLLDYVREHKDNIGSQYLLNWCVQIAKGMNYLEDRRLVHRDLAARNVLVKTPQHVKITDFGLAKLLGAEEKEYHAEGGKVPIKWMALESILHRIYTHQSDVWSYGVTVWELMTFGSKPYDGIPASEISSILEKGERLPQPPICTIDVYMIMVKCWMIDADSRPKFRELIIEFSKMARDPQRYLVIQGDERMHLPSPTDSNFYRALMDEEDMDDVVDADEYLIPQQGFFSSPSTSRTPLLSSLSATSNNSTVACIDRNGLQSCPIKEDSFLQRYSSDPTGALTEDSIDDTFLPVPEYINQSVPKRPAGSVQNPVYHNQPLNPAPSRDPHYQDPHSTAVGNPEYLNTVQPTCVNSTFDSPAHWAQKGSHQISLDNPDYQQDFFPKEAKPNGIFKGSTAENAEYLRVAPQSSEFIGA

For `C=CC(=O)Nc1cc(Nc2nccc(-c3cn(C)c4ccccc34)n2)c(OC)cc1N(C)CCNC` [AZ7550], which “affinity towards wild-type EGFR” value (wild-type EGFR) is on record?
Its value is “low affinity towards wild-type EGFR”.

Which half-life [1, 5] does the source give for `[2H]C([2H])=C([2H])C(=O)Nc1cc(Nc2nccc(-c3cn(C)c4ccccc34)n2)c(OC)cc1N(C)CCN(C)C` [D3-osimertinib] here?
Its half-life is 4.05 h.

What about the “Improvement (%) of t½ in cysteine solution” value [1] of the same molecule?
Its value is 33%.

For `[2H]C([2H])=C([2H])C(=O)Nc1cc(Nc2nccc(-c3cn(C([2H])([2H])[2H])c4ccccc34)n2)c(OC)cc1N(C)CCN(C)C` [D6-osimertinib], which half-life [1, 5] is on record?
The half-life was 4.56 h.

What about the “Improvement (%) of t½ in cysteine solution” value [1] of the same molecule?
Its value is 23%.

With `[2H]C([2H])([2H])N(c1cc(OC)c(Nc2nccc(-c3cn(C([2H])([2H])[2H])c4ccccc34)n2)cc1NC(=O)C=C)C([2H])([2H])C([2H])([2H])N(C([2H])([2H])[2H])C([2H])([2H])[2H]` [D16-osimertinib] as the molecule, how does the “difference between the concentrations of Osimertinib and the deuterated compound (percentage remaining)” value [2] read?
Its value is about 26%.

Which results are given for `[2H]C([2H])=C([2H])C(=O)Nc1cc(Nc2nccc(-c3cn(C([2H])([2H])[2H])c4ccccc34)n2)c(OC)cc1N(C([2H])([2H])[2H])C([2H])([2H])C([2H])([2H])N(C([2H])([2H])[2H])C([2H])([2H])[2H]` [D19-osimertinib]?
difference between the concentrations of Osimertinib and the deuterated compound (percentage remaining) [2]: ~28%; half-life [1, 5]: 2.75 h; Improvement (%) of t½ in cysteine solution [1]: 43%

For `C=CC(=O)Nc1cc(Nc2nccc(-c3cn(C)c4ccccc34)n2)c(OC)cc1N(C)CCN(C)C` [Osimertinib, N-(2-{2-dimethylaminoethyl-methylamino}-4-methoxy-5-{[4-(1-methylindol-3-yl)pyrimidin-2-yl]amino}phenyl)prop-2-enamide], which cell viability [3] is on record?
The cell viability was “did not affect the viability of cells”.

And the cell viability (HepG2 hepatoma cells)?
The cell viability was “did not affect the viability of cells”.

What about the half-life ([1]; reference osimertinib in combo solution with the deuterated compound, read-out: Half-life in cysteine solution, Reference (t½ h) (converted)) of the same molecule?
Its half-life is 5.41 h.

What about the AUC(0-t) [4] of the same molecule?
The AUC(0-t) was 654 ng·h/mL.
